From PubChem BioAssay AID1259411 (Chemical Carcinogenesis Research Information System (CCRIS), 2018) come the findings set out here.

Each structure is given as a SMILES string. Activity calls are given as the source filed them. The rule behind the calls is not given here.

This data set deals with rodent carcinogenicity bioassays, tumor incidence. In words: CCRIS carcinogenicity studies. The method, boiled down:
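NCI-built, expert-reviewed records of carcinogenicity and related test outcomes (mutagenicity, tumor promotion/inhibition) compiled from published and report sources, historical span 1985-2011, not updated.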

As to `CSC(=O)c1cccc2nnsc12`, the carcinogen call by setting is: (Species: Mouse, Strain/Sex: Tif:MAGf (SPF) (NIH x MAG hybrid)/Female, Route: Oral (diet), Dose: 0, 10, 100, 2000, 6000 ppm (0; 1.14; 10.8; 234; 696 mg/kg/day) for 18 mo, Dose: 0, 10, 100, 2000, 6000 ppm (0; 1.14; 10.8; 234; 696 mg/kg/day) for 18 mo) “inactive; negative”; (Species: Mouse, Strain/Sex: Tif:MAGf (SPF) (NIH x MAG hybrid)/Male, Route: Oral, Dose: 0, 10, 100, 2000, 6000 ppm (0; 1.14; 11.1; 237; 698 mg/kg/day) in feed for 18 mo, Dose: 0, 10, 100, 2000, 6000 ppm (0; 1.14; 11.1; 237; 698 mg/kg/day) in feed for 18 mo) “inactive; negative”; (Species: Rat, Strain/Sex: Tif:Ralf (SPF) (Rll/1 x Rll/2 hybrid)/Female, Route: Oral, Dose: 0, 20, 200, 2500, 7500 ppm (0; 0.90; 9.08; 111; 388 mg/kg/day) in feed for 2 yr, Dose: 0, 20, 200, 2500, 7500 ppm (0; 0.90; 9.08; 111; 388 mg/kg/day) in feed for 2 yr) “inactive; negative”; (Species: Rat, Strain/Sex: Tif:Ralf (SPF) (Rll/1 x Rll/2 hybrid)/Male, Route: Oral, Dose: 0, 20, 200, 2500, 7500 ppm (0; 0.77; 7.77; 96.9; 312 mg/kg/day) in feed for 2 years, Dose: 0, 20, 200, 2500, 7500 ppm (0; 0.77; 7.77; 96.9; 312 mg/kg/day) in feed for 2 years, Tumor Site: Type of Lesion: Small intestine: Mucinous carcinoma (1/60; 1/59; 2/59 at three highest doses)) “active; positive; dpr reviewer notes that only 1 case of mucinous carcinoma has been see”.

`CCOC(=O)C(C)Oc1ccc(Oc2nc3ccc(Cl)cc3o2)cc1` (stereo not given): the carcinogen call is, setting by setting: (Species: Mouse, Strain/Sex: Strain not given in source/Female (50/Group), Route: Oral, Dose: 0, 2.5, 10, 40 ppm in diet for 24 mo, study duration 24 mo, Dose: 0, 2.5, 10, 40 ppm in diet for 24 mo, study duration 24 mo) “inactive; negative”; (Species: Mouse, Strain/Sex: Strain not given in source/Male (50/Group), Route: Oral, Dose: 0, 2.5, 10, 40 ppm in diet for 24 mo, study duration 24 mo, Dose: 0, 2.5, 10, 40 ppm in diet for 24 mo, study duration 24 mo) “inactive; negative”; (Species: Rat, Strain/Sex: Strain not given in source/Female (60/Group), Route: Oral, Dose: 0, 5, 30, 180 ppm (0; 0.33; 2.00; 11.87 mg/kg) in diet for up to 28 mo, study duration 28 mo, Dose: 0, 5, 30, 180 ppm (0; 0.33; 2.00; 11.87 mg/kg) in diet for up to 28 mo, study duration 28 mo) “inactive; negative”; (Species: Rat, Strain/Sex: Strain not given in source/Male (60/Group), Route: Oral, Dose: 0, 5, 30, 180 ppm (0; 0.26; 1.58; 9.43 mg/kg) in diet for up to 28 mo, study duration 28 mo, Dose: 0, 5, 30, 180 ppm (0; 0.26; 1.58; 9.43 mg/kg) in diet for up to 28 mo, study duration 28 mo) “inactive; negative”.

As for `O=[N+]([O-])c1ccc2c(c1)Cc1cc([N+](=O)[O-])ccc1-2`, the carcinogen call (Species: Rat, Strain/Sex: Sprague-Dawley/Female (16/group), Route: Intraperitoneal, Dose: 10 umol/kg 3 times a wk for 4 wk (avg total dose 16.0 umol/rat), animals retained for up to 90 wk after last dosing (Tes, Tumor Site: Type of Lesion: Mammary Gland: % of rats with tumors (malignant 44, benign 38 vs 6 malignant, 53 benign in vehicle controls)) is “active; positive for malignant tumors only (p=0.02). dna adducts observed in mammary gla” and the carcinogen call (Species: Rat, Strain/Sex: Sprague-Dawley/Female (17/group), Route: Oral, Dose: 10 umol/kg 3 times a wk for 4 wk (avg total dose 18.0 umol/rat), animals retained for up to 90 wk after last dosing (Tes, Tumor Site: Type of Lesion: Mammary Gland: % of rats with tumors (malignant 29, benign 53 vs 12 malignant, 53 benign in vehicle controls)) was “inactive; negative. dna adducts observed in mammary gland dna collected 24 hr after last d”.
